In ChEMBL document CHEMBL1201862, “PubChem BioAssay data set” (2004):
Calls of active or inactive are those of the source.

Tests used:
[1] = target: T1, Tyrosyl-DNA phosphodiesterase 2 (Homo sapiens, UniProt O95551); experiment: potency against TDP2 phosphodiesterase activity – biochemical, epi absorbance, IC50, dose response (AID 743297)
T1 sequence (O95551 whole entry): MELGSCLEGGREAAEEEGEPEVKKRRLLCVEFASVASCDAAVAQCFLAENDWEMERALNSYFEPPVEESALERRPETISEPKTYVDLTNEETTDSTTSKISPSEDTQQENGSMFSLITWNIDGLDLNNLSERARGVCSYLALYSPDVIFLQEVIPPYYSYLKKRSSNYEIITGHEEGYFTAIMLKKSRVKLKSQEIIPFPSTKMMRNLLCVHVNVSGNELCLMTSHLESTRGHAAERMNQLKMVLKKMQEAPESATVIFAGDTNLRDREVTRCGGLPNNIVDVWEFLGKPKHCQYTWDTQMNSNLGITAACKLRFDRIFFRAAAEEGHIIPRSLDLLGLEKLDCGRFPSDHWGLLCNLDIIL

[2] = tested on: Streptococcus; experiment: GAS UMAA2166 growth inhibition – luminescence, BacTiterGlo, counter-screen for streptokinase expression inhibitor project, dose response (AID 1915); assay type: functional, organism-based;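 also: potency for reduction of bacterial viability or growth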
[3] = target: T2, SUMO-activating enzyme (Homo sapiens, UniProt Q9UBT2); experiment: blockers of SAE1/SAE2–UBC9 SUMO transfer – biochemical, HTRF, uHTS, primary screen (AID 2006); assay type: protein-complex assay
T2 sequence (Q9UBE0 whole entry): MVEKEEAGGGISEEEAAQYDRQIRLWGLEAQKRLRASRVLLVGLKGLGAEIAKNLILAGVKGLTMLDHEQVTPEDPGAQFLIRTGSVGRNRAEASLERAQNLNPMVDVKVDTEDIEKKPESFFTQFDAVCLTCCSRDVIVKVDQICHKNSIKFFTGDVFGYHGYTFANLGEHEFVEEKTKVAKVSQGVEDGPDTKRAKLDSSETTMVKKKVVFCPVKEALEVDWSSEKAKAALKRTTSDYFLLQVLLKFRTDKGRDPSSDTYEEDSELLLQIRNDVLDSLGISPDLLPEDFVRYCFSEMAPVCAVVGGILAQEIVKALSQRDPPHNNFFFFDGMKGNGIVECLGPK
T2 sequence (Q9UBT2 whole entry): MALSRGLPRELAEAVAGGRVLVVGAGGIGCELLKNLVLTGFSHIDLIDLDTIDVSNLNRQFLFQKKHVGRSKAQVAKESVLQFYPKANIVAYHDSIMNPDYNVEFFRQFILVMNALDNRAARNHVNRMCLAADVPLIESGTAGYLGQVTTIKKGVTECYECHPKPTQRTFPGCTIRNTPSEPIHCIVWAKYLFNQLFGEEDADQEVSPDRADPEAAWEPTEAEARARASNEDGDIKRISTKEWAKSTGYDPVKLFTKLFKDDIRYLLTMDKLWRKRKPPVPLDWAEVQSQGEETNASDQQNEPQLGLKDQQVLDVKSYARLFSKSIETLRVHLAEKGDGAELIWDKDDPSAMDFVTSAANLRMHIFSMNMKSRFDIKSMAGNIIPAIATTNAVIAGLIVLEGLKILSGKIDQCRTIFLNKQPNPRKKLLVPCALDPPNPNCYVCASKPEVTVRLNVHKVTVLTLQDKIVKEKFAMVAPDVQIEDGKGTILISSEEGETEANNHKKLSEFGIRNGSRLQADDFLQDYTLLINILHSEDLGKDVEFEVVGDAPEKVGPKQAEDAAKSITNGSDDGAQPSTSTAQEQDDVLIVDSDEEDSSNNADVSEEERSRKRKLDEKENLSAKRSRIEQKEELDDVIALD

[4] = target: T2, SUMO-activating enzyme; experiment: blockers of UBC9-mediated SUMO conjugation – biochemical, AlphaScreen, SUMOylation inhibitor project, confirmation (AID 2018); assay type: functional
[5] = target: T3, Replicative DNA helicase DnaB (Mycobacterium tuberculosis, UniProt P9WMR3); experiment: DnaB intein splicing inhibitors, dose response, biochemical, cell-free fluorescence (AID 449749); assay type: functional
T3 sequence (P9WMR3 whole entry): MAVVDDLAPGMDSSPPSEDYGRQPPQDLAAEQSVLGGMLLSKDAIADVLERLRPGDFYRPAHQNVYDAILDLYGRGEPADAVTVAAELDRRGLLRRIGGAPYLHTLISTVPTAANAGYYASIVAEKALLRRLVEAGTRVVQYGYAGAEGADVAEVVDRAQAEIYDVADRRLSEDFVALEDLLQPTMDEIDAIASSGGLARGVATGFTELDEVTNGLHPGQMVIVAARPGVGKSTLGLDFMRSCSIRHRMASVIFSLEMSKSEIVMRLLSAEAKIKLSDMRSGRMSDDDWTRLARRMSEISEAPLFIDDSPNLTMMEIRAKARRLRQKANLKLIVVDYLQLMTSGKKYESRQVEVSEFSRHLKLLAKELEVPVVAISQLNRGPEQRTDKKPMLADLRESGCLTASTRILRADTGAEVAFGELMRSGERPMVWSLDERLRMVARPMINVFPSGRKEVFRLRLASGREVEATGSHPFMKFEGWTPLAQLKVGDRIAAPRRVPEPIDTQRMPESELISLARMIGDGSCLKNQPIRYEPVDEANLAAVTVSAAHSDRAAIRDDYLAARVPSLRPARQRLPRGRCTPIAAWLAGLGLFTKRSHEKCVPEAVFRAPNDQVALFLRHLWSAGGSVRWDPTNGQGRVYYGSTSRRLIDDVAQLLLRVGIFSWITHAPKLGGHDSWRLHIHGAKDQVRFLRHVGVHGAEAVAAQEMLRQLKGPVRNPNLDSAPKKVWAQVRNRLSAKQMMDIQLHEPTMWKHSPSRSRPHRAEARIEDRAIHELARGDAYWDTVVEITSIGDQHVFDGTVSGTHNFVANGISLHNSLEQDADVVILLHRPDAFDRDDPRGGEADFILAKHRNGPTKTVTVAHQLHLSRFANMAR

[6] = target: T4, Streptokinase A (Streptococcus pyogenes serotype M1, UniProt P10520); experiment: viability-normalized secreted streptokinase activity reduction – plasminogen activation absorbance, OD405, dose response (AID 1914); assay type: functional, Streptococcus pyogenes M1 GAS;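 also: secreted streptokinase activity via plasminogen activation per viability signal from cell pellet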
T4 sequence (P10520 whole entry): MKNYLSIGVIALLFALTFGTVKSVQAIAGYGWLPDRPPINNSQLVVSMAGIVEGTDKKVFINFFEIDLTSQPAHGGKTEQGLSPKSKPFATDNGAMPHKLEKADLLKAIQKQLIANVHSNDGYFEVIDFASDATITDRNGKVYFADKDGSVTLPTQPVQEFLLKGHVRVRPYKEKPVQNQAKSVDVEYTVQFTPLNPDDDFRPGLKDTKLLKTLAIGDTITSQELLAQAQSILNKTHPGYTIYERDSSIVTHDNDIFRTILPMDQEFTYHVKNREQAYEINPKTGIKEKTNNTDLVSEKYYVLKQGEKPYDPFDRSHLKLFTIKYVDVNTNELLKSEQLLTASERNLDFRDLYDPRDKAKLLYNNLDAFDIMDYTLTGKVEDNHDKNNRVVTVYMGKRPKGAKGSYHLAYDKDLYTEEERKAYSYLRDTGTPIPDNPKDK

[7] = target: T5, Long-chain-fatty-acid--AMP ligase FadD28 (Mycobacterium tuberculosis, UniProt P9WQ59); experiment: Fluorescence polarization aasay to screen for inhibitors that compete for the binding of FadD28 to a bisubstrate Measured in Biochemical System Using Plate Reader - 2147-01_Inhibitor_Dose_CherryPick_Activity.; assay type: functional, Mycobacterium tuberculosis H37Rv
T5 sequence (P9WQ59 whole entry): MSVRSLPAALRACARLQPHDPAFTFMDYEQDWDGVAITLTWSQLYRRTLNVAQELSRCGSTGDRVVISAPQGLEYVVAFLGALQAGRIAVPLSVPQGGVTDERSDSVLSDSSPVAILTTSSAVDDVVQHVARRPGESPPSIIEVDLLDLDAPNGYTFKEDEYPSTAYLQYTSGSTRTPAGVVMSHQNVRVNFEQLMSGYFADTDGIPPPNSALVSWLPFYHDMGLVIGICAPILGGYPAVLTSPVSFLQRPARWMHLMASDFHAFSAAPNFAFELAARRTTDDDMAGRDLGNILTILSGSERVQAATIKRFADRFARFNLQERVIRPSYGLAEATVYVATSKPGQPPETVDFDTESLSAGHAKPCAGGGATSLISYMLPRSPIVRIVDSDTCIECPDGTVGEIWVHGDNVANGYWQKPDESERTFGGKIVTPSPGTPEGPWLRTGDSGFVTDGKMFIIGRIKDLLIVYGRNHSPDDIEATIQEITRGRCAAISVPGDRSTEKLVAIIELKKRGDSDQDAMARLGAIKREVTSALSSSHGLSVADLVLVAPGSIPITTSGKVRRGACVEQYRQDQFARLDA

[8] = tested on: Streptococcus sp. 'group A'; experiment: Streptococcus pyogenes SK(-)GAS viability under kanamycin – luminescence, BacTiterGlo, confirmation, counter-screen for streptokinase expression inhibitor project, dose response (AID 1900); assay type: functional, organism-based

For `CCCCn1c(NS(=O)(=O)c2ccccc2)c(S(=O)(=O)c2ccc(C)cc2)c2nc3ccccc3nc21`, which IC50 [1] is on record?
Its IC50 is 7.83 µM (active).

And the EC50 [2]?
Its EC50 is 14.1 µM (active).

And the IC50 [3]?
The IC50 was 1.83 µM (active).

And the IC50 [4]?
The IC50 was 0.68 µM (active).

And the AC50 [5]?
The AC50 was > 380 µM (inactive).

And the EC50 [6]?
Its EC50 is 18.2 µM (active).

What about the AC50 [7] of the same molecule?
Its AC50 is 46.5 µM (active).

What about the EC50 [8] of the same molecule?
The EC50 was 3.56 µM (active).
